The source of these data is ChEMBL document CHEMBL4819097, “Identification of an allosteric and Smad3-selective inhibitor of p38αMAPK using a substrate-based approach” (Bioorg Med Chem Lett, 2021).

The source made the active and inactive calls. The calls are words filed in the database; no cut-off is given here. Peptide text beside a SMILES is read from it.

Assay [1] has as its target T1, Mitogen-activated protein kinase 14 (Homo sapiens, UniProt Q16539). Nature of the assay: Binding affinity to P38alpha MAPK (unknown origin) using Smad3 as substrate incubated for 1 hr in presence of increasing concentration of ATP by ELISA.
The target in assay [2] is T1, Mitogen-activated protein kinase 14. Nature of the assay: Binding affinity to P38alpha MAPK (unknown origin) using Smad3 as substrate incubated for 1 hr in presence of ATP by ELISA based competitive binding potency assay.
Assay [3] shares this target. Nature of the assay: Binding affinity to P38alpha MAPK (unknown origin) using MAPKAPK2 as substrate incubated for 1 hr by ELISA.
The target is the same in assay [4]. Nature of the assay: Binding affinity to recombinant human N-terminal GST-tagged P38alpha MAPK expressed in Escherichia coli using ERKtide as substrate by mobility shift assay.
Assay [5] shares this target. Nature of the assay: Binding affinity to P38alpha MAPK (unknown origin) using MBP as substrate incubated for 1 hr by ELISA. In general terms: An ELISA detects its analyte on a solid surface through an enzyme-linked reagent.

T1 sequence (Q16539 whole entry): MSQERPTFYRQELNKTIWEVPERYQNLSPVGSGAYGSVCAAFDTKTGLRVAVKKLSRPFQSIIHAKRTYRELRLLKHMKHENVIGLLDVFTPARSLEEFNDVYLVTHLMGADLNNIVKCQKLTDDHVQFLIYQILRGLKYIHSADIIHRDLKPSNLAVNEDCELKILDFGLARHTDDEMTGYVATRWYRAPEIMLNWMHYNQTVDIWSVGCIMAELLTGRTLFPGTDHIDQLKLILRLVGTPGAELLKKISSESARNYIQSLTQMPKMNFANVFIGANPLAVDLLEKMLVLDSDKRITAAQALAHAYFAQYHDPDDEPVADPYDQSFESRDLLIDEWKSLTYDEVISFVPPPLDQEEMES

For the compound `Oc1ccc(-c2nc(-c3ccc(F)cc3)c(-c3ccncc3)[nH]2)cc1`, the result in assay [1] was inactive.

For `CC[C@H](C)[C@H](N)C(=O)N[C@@H](CCCCN)C(=O)N[C@H](C(=O)N[C@@H](CCCCN)C(=O)N[C@@H](CCCCN)C(=O)N[C@H](C(=O)N[C@@H](CCC(=O)O)C(=O)N[C@@H](CC(=O)O)C(=O)N[C@@H](C)C(=O)N[C@@H](CO)C(=O)N[C@@H](CC(N)=O)C(=O)N1CCC[C@H]1C(=O)N[C@@H](CC(C)C)C(=O)O)[C@@H](C)CC)[C@@H](C)CC` (H-IKIKKIEDASNPL-OH), the IC50 in assay [2] was greater than 1000 nM.

Consider `CC[C@H](C)[C@H](N)C(=O)N[C@@H](CCCCN)C(=O)N[C@H](C(=O)N[C@@H](CCCCN)C(=O)N[C@@H](CCCCN)C(=O)N[C@H](C(=O)N[C@@H](CCC(=O)O)C(=O)N[C@@H](CC(=O)O)C(=O)N[C@@H](C)C(=O)N[C@@H](CO)C(=O)N[C@@H](CC(N)=O)C(=O)N1CCC[C@H]1C(=O)N[C@@H](CC(C)C)C(=O)N[C@@H](CC(C)C)C(=O)N[C@@H](CC(C)C)C(=O)N[C@H](C(=O)N[C@@H](CS)C(=O)N[C@@H](CCCNC(=N)N)C(=O)N[C@@H](CCCNC(=N)N)C(=O)N[C@@H](CCCNC(=N)N)C(=O)N[C@@H](CCCCN)C(=O)N[C@@H](C)C(=O)N[C@@H](CCCNC(=N)N)C(=O)N[C@@H](C)C(=O)N[C@@H](CC(C)C)C(=O)O)[C@@H](C)CC)[C@@H](C)CC)[C@@H](C)CC` (H-IKIKKIEDASNPLLLICRRRKARAL-OH), for which the outcome in assay [1] was Active. Moreover, the IC50 in assay [3] is greater than 1000 nM; in assay [4] it was greater than 100 µM; in assay [5] it was greater than 1000 nM; in assay [2], 1.3 nM.

As to `CC[C@H](C)[C@H](N)C(=O)N[C@@H](CCCCN)C(=O)N[C@H](C(=O)N[C@@H](CCCCN)C(=O)N[C@@H](CCCCN)C(=O)N[C@H](C(=O)N[C@@H](CCC(=O)O)C(=O)N[C@@H](CC(=O)O)C(=O)N[C@@H](C)C(=O)N[C@@H](CO)C(=O)N[C@@H](CC(N)=O)C(=O)N1CCC[C@H]1C(=O)N[C@@H](CC(C)C)C(=O)N[C@@H](CC(C)C)C(=O)N[C@@H](CC(C)C)C(=O)N[C@@H](CCCCN)C(=O)N[C@@H](CCCNC(=N)N)C(=O)N[C@@H](CCCNC(=N)N)C(=O)NCC(=O)O)[C@@H](C)CC)[C@@H](C)CC` (H-IKIKKIEDASNPLLLKRRG-OH), the IC50 in assay [2] was 300 nM.

Turning to `CC(C)C[C@H](NC(=O)[C@@H](NC(=O)[C@@H]1CCCN1C(=O)[C@@H]1CCCN1C(=O)[C@@H](N)CC(C)C)C(C)C)C(=O)N[C@H](C(=O)N1CCC[C@H]1C(=O)N[C@@H](CCCNC(=N)N)C(=O)N[C@@H](Cc1cnc[nH]1)C(=O)N[C@H](C(=O)N[C@@H](CCC(=O)O)C(=O)O)[C@@H](C)O)C(C)C` (H-LPPVLVPRHTE-OH), the IC50 in assay [4] was greater than 100 µM; in assay [2] it was greater than 100000 nM.

Turning to `CC[C@H](C)[C@H](NC(=O)[C@H](CCC(=O)O)NC(=O)[C@@H](NC(=O)[C@H](Cc1cnc[nH]1)NC(=O)[C@H](CCCNC(=N)N)NC(=O)[C@@H]1CCCN1C(=O)[C@@H](NC(=O)[C@H](CC(C)C)NC(=O)[C@@H](NC(=O)[C@@H]1CCCN1C(=O)[C@@H]1CCCN1C(=O)[C@@H](N)CC(C)C)C(C)C)C(C)C)[C@@H](C)O)C(=O)N1CCC[C@H]1C(=O)N[C@@H](C)C(=O)N[C@@H](CCC(=O)O)C(=O)N[C@@H](Cc1ccccc1)C(=O)N1CCC[C@H]1C(=O)N1CCC[C@H]1C(=O)N[C@@H](CC(C)C)C(=O)N[C@@H](CC(=O)O)C(=O)O` (H-LPPVLVPRHTEIPAEFPPLD-OH), the IC50 is greater than 100 µM in assay [4] and greater than 100000 nM in assay [2].

Consider `CC[C@H](C)[C@H](NC(=O)[C@H](CCC(=O)O)NC(=O)[C@@H](NC(=O)[C@H](Cc1cnc[nH]1)NC(=O)[C@H](CCCNC(=N)N)NC(=O)[C@@H]1CCCN1C(=O)[C@@H](NC(=O)[C@H](CC(C)C)NC(=O)[C@@H](NC(=O)[C@@H]1CCCN1C(=O)[C@@H]1CCCN1C(=O)[C@@H](N)CC(C)C)C(C)C)C(C)C)[C@@H](C)O)C(=O)N1CCC[C@H]1C(=O)N[C@@H](C)C(=O)N[C@@H](CCC(=O)O)C(=O)N[C@@H](Cc1ccccc1)C(=O)N1CCC[C@H]1C(=O)N1CCC[C@H]1C(=O)N[C@@H](CC(C)C)C(=O)N[C@@H](CC(=O)O)C(=O)N[C@@H](CC(=O)O)C(=O)N[C@@H](Cc1ccc(O)cc1)C(=O)N[C@@H](CO)C(=O)N[C@@H](Cc1cnc[nH]1)C(=O)N[C@@H](CO)C(=O)N[C@H](C(=O)N1CCC[C@H]1C(=O)N[C@@H](CCC(=O)O)C(=O)N[C@@H](CC(N)=O)C(=O)O)[C@@H](C)CC` (H-LPPVLVPRHTEIPAEFPPLDDYSHSIPEN-OH), for which the IC50 is greater than 100 µM in assay [4] and greater than 100000 nM in assay [2].

In the case of `CC[C@H](C)[C@H](NC(=O)[C@H](CCCCN)NC(=O)[C@H](CC(C)C)NC(=O)CNC(=O)[C@@H]1CCCN1C(=O)[C@H](CC(N)=O)NC(=O)[C@H](CCCNC(=N)N)NC(=O)[C@H](CCCCN)NC(=O)[C@H](CCCCN)NC(=O)CNC(=O)[C@H](CCCCN)NC(=O)[C@@H](N)CO)C(=O)N1CCC[C@H]1C(=O)O` (H-SKGKKRNPGLKIP-OH), the IC50 in assay [4] is greater than 100 µM; in assay [2], 2600 nM.

For `CC(C)C[C@H](NC(=O)[C@H](C)NC(=O)[C@H](CCCNC(=N)N)NC(=O)[C@H](C)NC(=O)[C@H](CCCCN)NC(=O)[C@H](CCCNC(=N)N)NC(=O)[C@H](CCCNC(=N)N)NC(=O)[C@H](CCCNC(=N)N)NC(=O)[C@H](CCCCN)NC(=O)[C@H](CC(C)C)NC(=O)[C@H](CC(C)C)NC(=O)[C@H](CC(C)C)NC(=O)[C@@H]1CCCN1C(=O)[C@H](CC(N)=O)NC(=O)[C@@H](N)CO)C(=O)O` (H-SNPLLLKRRRKARAL-OH), the 50% inhibitory concentration (IC50) in assay [2] was 290 nM.

For the compound `CC[C@H](C)[C@H](NC(=O)[C@H](Cc1c[nH]c2ccccc12)NC(=O)CNC(=O)[C@H](CC(C)C)NC(=O)[C@H](CC(C)C)NC(=O)[C@H](CCCNC(=N)N)NC(=O)[C@H](CS)NC(=O)[C@@H](NC(=O)[C@@H](NC(=O)[C@@H](NC(=O)[C@@H]1CCCN1C(=O)[C@@H]1CCCN1C(=O)[C@@H](NC(=O)[C@H](Cc1ccccc1)NC(=O)[C@@H]1CCCN1C(=O)[C@H](CC(C)C)NC(=O)[C@@H](NC(=O)[C@H](CO)NC(=O)[C@@H](N)CO)[C@@H](C)CC)[C@@H](C)O)[C@@H](C)CC)C(C)C)[C@@H](C)CC)C(=O)N[C@@H](CS)C(=O)N[C@@H](CCCCN)C(=O)NCC(=O)N[C@@H](CCC(=O)O)C(=O)O` (H-SSILPFTPPIVICRLLGWICKGE-OH), the IC50 in assay [4] was greater than 100 µM; in assay [2] it was 9000 nM.

Usually IC50 stands for the concentration that gives 50% inhibition.
